According to publication PMC9151520 (Archives of Toxicology, 2022):
Counter-ions that a name gives are not always drawn. Like-named read-outs stand apart in the source and are kept apart here.

Experiments:
[1] = system: p53 signaling (p53RE-bla HCT-116 cells); assay: cells; assay type: cell-based
[2] = system: p53 signaling (p53RE-bla HCT-116 cells)
[3] = system: p53 signaling (p53RE-bla HCT-116 cells); remark: listed apart in the source
[4] = read-out: p53 activation EC50, cherry pick confirmation
[5] = read-out: p53 activation EC50, primary screening
[6] = Homo sapiens, HCT-116, read-out: p53 activation EC50, cherry pick confirmation
[7] = Homo sapiens, HCT-116, read-out: p53 activation EC50, primary screening
[8] = Homo sapiens, HCT-116, read-out: p53 activation efficacy, cherry pick confirmation
[9] = Homo sapiens, HCT-116, read-out: p53 activation efficacy, primary screening
[10] = Homo sapiens, HCT-116, read-out: EC50, p53 activation, primary screening
[11] = Homo sapiens, HCT-116, read-out: Efficacy, p53 activation, primary screening

Structure (SMILES) | p53 activation efficacy, cherry pick confirmation [1] | p53 activation efficacy, primary screening [1] | EC50 [1, 4] | EC50 [1, 5] | Viability EC50, cherry pick confirmation (p53RE-bla HCT-116 cells) | Viability EC50, primary screening (p53RE-bla HCT-116 cells) | Viability efficacy, cherry pick confirmation (p53RE-bla HCT-116 cells) | Viability efficacy, primary screening (p53RE-bla HCT-116 cells) | p53 activation EC50, cherry pick confirmation [2] | p53 activation EC50, primary screening [2] | p53 activation efficacy, cherry pick confirmation [2] | p53 activation efficacy, primary screening [2] | p53 activation EC50, cherry pick confirmation [3] | p53 activation EC50, primary screening [3] | p53 activation efficacy, cherry pick confirmation [3] | p53 activation efficacy, primary screening [3] | further results
CC(O)C(=O)O.CCOc1ccc2nc3cc(N)ccc3c(N)c2c1.O [Ethacridine lactate hydrate] | 145.785 | 113.254 | 19.1 µM | 21.5 µM | inactive | inactive | inactive | inactive | inactive | inactive | inactive | inactive | inactive | inactive | inactive | inactive | 
CC(=O)Nc1ccn(C2COC(COC(=O)c3ccccc3)O2)c(=O)n1 (centres unmarked) | 43.9867 | 52.8473 | 9.43 µM | 2.5 µM | inactive | inactive | inactive | inactive | inactive | inactive | inactive | inactive | inactive | inactive | inactive | inactive | 
Nc1nc(Cl)nc2c1ncn2[C@@H]1O[C@H](CO)[C@@H](O)[C@@H]1F [Clofarabine] |  |  |  |  | inactive | inactive | inactive | inactive | inactive | inactive | inactive | inactive | inactive | inactive | inactive | inactive | EC50 [1, 6]: 0.335 µM; EC50 [1, 7]: 0.138 µM; Emax [1, 8]: 84.9%; Emax [1, 9]: 93.3%
CNC(=O)O/N=C/C(C)(C)SC [Aldicarb] |  |  |  |  |  |  |  |  |  |  |  |  |  |  |  |  | p53 activation EC50 [1]: inactive; p53 activation efficacy [1]: inactive; Viability EC50 (p53RE-bla HCT-116 cells): inactive; Viability efficacy (p53RE-bla HCT-116 cells): inactive; p53 activation EC50 [2]: inactive; p53 activation EC50 [3]: inactive
Cl.Nc1ccn([C@@H]2O[C@H](CO)[C@@H](O)C2(F)F)c(=O)n1 | 111.507 | 94.321 | 0.205 µM | 0.174 µM | inactive | inactive | inactive | inactive | inactive | inactive | inactive | inactive | inactive | inactive | inactive | inactive | 
CCN(CC)CCCC(C)Nc1c2ccc(Cl)cc2nc2ccc(OC)cc12 (centres unmarked) [Quinacrine dihydrochloride dihydrate] |  |  |  |  | inactive | inactive | inactive | inactive | inactive | inactive | inactive | inactive | inactive | inactive | inactive | inactive | EC50 [1, 6]: 8.34 µM; EC50 [1, 7]: 20.7 µM; Emax [1, 8]: 271%; Emax [1, 9]: 79.8%
Nc1ncn([C@@H]2O[C@H](CO)[C@@H](O)[C@H]2O)c(=O)n1 [5-Azacytidine] | 71.649 | 59.244 | 17.7 µM | 11.2 µM | inactive | inactive | inactive | inactive | inactive | inactive | inactive | inactive | inactive | inactive | inactive | inactive | 
O=C(Nc1cccc(C(F)(F)F)c1)c1cc(Br)cc(Br)c1O [Fluorosalan] |  |  |  |  |  |  |  |  |  |  |  |  |  |  |  |  | EC50 ([1]; Homo sapiens, HCT-116, read-out: EC50, p53 activation, cherry pick confirmation): 27.3 µM; EC50 [1, 10]: 17.6 µM; Emax ([1]; Homo sapiens, HCT-116, read-out: Efficacy, p53 activation, cherry pick confirmation): 47.5%; Emax [1, 11]: 33.3%; EC50, viability, cherry pick confirmation (p53RE-bla HCT-116 cells): inactive; EC50, viability, primary screening (p53RE-bla HCT-116 cells): inactive; Efficacy, viability, cherry pick confirmation (p53RE-bla HCT-116 cells): inactive; Efficacy, viability, primary screening (p53RE-bla HCT-116 cells): inactive; EC50, p53 activation, cherry pick confirmation [2]: inactive; EC50, p53 activation, primary screening [2]: inactive; Efficacy, p53 activation, cherry pick confirmation [2]: inactive; Efficacy, p53 activation, primary screening [2]: inactive; EC50, p53 activation, cherry pick confirmation [3]: inactive; EC50, p53 activation, primary screening [3]: inactive; Efficacy, p53 activation, cherry pick confirmation [3]: inactive; Efficacy, p53 activation, primary screening [3]: inactive
Cc1cccc2sc3nncn3c12 [2,7,8,9-Tricyclazole] |  |  |  |  |  |  |  |  |  |  |  |  |  |  |  |  | p53 activation EC50 [1]: inactive; p53 activation efficacy [1]: inactive; Viability EC50 (p53RE-bla HCT-116 cells): inactive; Viability efficacy (p53RE-bla HCT-116 cells): inactive; p53 activation EC50 [2]: inactive; p53 activation EC50 [3]: inactive
Oc1ccc(-c2ccc(O)cc2)cc1 [4,4'-Biphenyldiol] |  |  |  |  |  |  |  |  |  |  |  |  |  |  |  |  | EC50, p53 activation, cherry pick confirmation [1]: inactive; Efficacy, p53 activation, cherry pick confirmation [1]: inactive; EC50 [1, 10]: 35.4 µM; Emax [1, 11]: 48.2%; EC50, viability, cherry pick confirmation (p53RE-bla HCT-116 cells): inactive; EC50, viability, primary screening (p53RE-bla HCT-116 cells): inactive; Efficacy, viability, cherry pick confirmation (p53RE-bla HCT-116 cells): inactive; Efficacy, viability, primary screening (p53RE-bla HCT-116 cells): inactive; EC50, p53 activation, cherry pick confirmation [2]: inactive; EC50, p53 activation, primary screening [2]: inactive; Efficacy, p53 activation, cherry pick confirmation [2]: inactive; Efficacy, p53 activation, primary screening [2]: inactive; EC50, p53 activation, cherry pick confirmation [3]: inactive; EC50, p53 activation, primary screening [3]: inactive; Efficacy, p53 activation, cherry pick confirmation [3]: inactive; Efficacy, p53 activation, primary screening [3]: inactive
